Values quoted from earlier work in US6383513B1, “Compositions comprising cannabinoids” (West Pharmaceutical Services Drug Delivery & Clinical …, priority 1997, dated 2002).

Experiments:
[1] = not given; remark: listed apart in the source

Q: With CCCCCc1cc(O)c2c(c1)OC(C)(C)[C@@H]1CCC(C)=C[C@@H]21 [Dronabinol, delta-9-tetrahydrocannabinol] as the molecule, how does the “appetite stimulant effect may continue” value (after administration) read?
A: ≥ 24 h

Q: And the “duration of action for psychoactive effects” value (after oral administration)?
A: 4 to 6 h

Q: What about the onset of action (after oral administration) of the same molecule?
A: 0.5 to 1 h

Q: What about the peak effect (after oral administration) of the same molecule?
A: 2 to 4 h

Q: And the absorbed ([1]; after single oral doses)?
A: 90-95%

Q: What about the “administered dose that reaches the systemic circulation” value ([1]; oral, first pass hepatic metabolism and high lipid solubility) of the same molecule?
A: 10-20%
